Experimental data taken from BindingDB's records for patent US20250163072 (Hoffmann-La Roche, 2025).

Molecular target: GTPase KRas [G12C]/Serine/threonine-protein kinase B-raf (Human, UniProt P01116+P15056, G12C)
Assay: KRAS G12C-BRAF NanoBit Assay
Protocol: HEK293 cells were grown and maintained using DMEM medium (Thermo Fisher Scientific) with 10% fetal bovine serum and 1% penicillin/streptomycin. Both KRAS G12C and BRAF RBD were cloned into the NanoBit vectors ([…] vectors system, Promega) with the orientations SmBit-KRAS G12C and BRAF RBD-LgBit, respectively, and co-transfected into HEK293 cells. Cells were then selected with 100 μg/mL Hygromycin B (10687010, Thermo Fisher) and Blasticidin (5 μg/mL) for 4 weeks to get the stable cell pool. On the day of the assay, 75 nL of compound solution was presented in a 384-well assay plate as a 16-point 3-fold dilution starting from a final concentration of 30 μM in DMSO. Then cells were seeded at 10,000 cells/25 μL/well in a 384-well plate. After 3 hours of incubation, 6 μL of volume of Nano-Glo Live Cell Substrate (Promega) was added into each well. Monitor luminescence using ultra384 model in Envision at 20 minutes. Compounds that facilitate disruption of the KRAS G12C-BRAF RBD complex were identified as those eliciting a decrease of luminescence relative to DMSO control wells.

GTPase KRas [G12C]/Serine/threonine-protein kinase B-raf, sequence (P01116 whole entry G12C): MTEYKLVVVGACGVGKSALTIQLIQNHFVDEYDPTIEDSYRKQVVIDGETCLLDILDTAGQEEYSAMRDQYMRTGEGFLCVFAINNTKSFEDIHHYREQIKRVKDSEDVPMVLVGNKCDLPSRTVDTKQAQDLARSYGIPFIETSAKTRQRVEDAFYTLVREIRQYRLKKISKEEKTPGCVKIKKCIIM
GTPase KRas [G12C]/Serine/threonine-protein kinase B-raf, sequence (P15056 2-766 limits assumed): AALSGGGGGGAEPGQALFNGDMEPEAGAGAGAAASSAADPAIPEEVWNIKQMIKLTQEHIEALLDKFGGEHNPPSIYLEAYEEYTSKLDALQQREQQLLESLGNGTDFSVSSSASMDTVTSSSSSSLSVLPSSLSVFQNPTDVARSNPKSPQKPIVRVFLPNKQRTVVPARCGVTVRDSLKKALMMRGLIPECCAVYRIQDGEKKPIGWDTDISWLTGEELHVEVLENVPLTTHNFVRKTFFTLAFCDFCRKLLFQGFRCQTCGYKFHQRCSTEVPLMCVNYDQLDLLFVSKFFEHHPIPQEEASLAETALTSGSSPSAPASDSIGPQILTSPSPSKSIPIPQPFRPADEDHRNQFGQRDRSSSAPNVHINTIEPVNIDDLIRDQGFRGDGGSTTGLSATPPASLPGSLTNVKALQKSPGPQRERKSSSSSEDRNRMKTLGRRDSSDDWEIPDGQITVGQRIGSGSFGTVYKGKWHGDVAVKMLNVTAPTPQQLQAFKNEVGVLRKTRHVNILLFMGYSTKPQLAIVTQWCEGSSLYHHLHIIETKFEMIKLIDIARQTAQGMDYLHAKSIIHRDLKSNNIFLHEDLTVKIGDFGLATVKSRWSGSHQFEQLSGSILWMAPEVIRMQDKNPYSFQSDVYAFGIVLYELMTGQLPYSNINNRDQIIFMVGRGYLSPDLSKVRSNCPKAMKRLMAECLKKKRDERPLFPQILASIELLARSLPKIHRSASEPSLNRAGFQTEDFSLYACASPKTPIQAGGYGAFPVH

Compound	IC50 [nM]
CCn1c(-c2cccnc2[C@H](C)OC)c2c3cc(ccc31)-c1cc(O)cc(c1)C[C@H](NC(=O)[C@H](C(C)C)N(C)C(=O)C1CN(C(=O)CCl)C1)C(=O)N1CCC[C@H](N1)C(=O)OCC(C)(C)C2 [US20250163072, Example RM461]	440
CCn1c(-c2cccnc2[C@H](C)OC)c2c3cc(ccc31)-c1cc(O)cc(c1)C[C@H](NC(=O)[C@H](C(C)C)N(C)C(=O)C1CCN(C(=O)C#CCN3CCOCC3)C1)C(=O)N1CCC[C@H](N1)C(=O)OCC(C)(C)C2 (stereo partly drawn) [US20250163072, Example RM018]	268
CC(C)[C@@H](C(=O)N[C@H]1Cc2cc(O)cc(c2)-c2ccc3c(C(C)(C)C#N)cn(c3c2)CC(C)(C)COC(=O)[C@@H]2CCCN(N2)C1=O)N1CCCC2(CCN(C(=O)CCl)C2)C1=O (stereo partly drawn) [US20250163072, Example RM351]	1780
